Data set [1] addresses T1, Integrin alpha-4/beta-1 (Homo sapiens, UniProt P05556+P13612). Nature of the data set: Inhibition of [125I]VCAM-Ig binding to VLA-4 of Jurkat cells in the presence of [Ca2+]. The class given is cell-based.
Data set [2] addresses T1, Integrin alpha-4/beta-1. Briefly: Inhibition of VLA-4 binding in Jurkat cells in the presence of Mg2+. The class given is cell-based.
The target of data set [3] is T1, Integrin alpha-4/beta-1. Nature of the data set: Dissociation from Very late antigen 4 (VLA-4). The class given is protein-complex assay.
Data set [4] has as its target T1, Integrin alpha-4/beta-1. Briefly: Inhibition of [125I]VCAM-Ig binding to VLA-4 of Jurkat cells in the presence of Mn2+. The class given is cell-based.
The nature of data set [5]: Unbound plasma was determined in rhesus monkey at a dose of 1 mg/kg by iv administration. The class given is ADME, organism-based. Details: dose 1 mg/kg, route intravenous. The following applies: cercopithecidae, in vivo.
Data set [6] can be described thus: Plasma clearance was determined in Beagle dog at a dose of 1 mg/kg by iv administration. The class given is ADME, organism-based, Canis lupus familiaris. On the set-up: dose 1 mg/kg, route intravenous. The following applies: read-out: Clp.
Data set [7] can be described thus: Plasma clearance was determined in rhesus monkey at a dose of 1 mg/kg by iv administration. Details: dose 1 mg/kg, route intravenous. The class given is ADME, organism-based. Conditions: cercopithecidae, read-out: Clp.
Data set [8] is described as follows: Oral bioavailability in Sprague-Dawley rats at a dose of 2 mg/kg by po administration. The class given is ADME, organism-based. Conditions: rat, in vivo.
A short description of data set [9]: Oral bioavailability in Beagle dog at a dose of 2 mg/kg by po administration. The class given is ADME, organism-based, Canis lupus familiaris. The following applies: in vivo.
The next data set deals with Canis familiaris. Briefly: Unbound plasma was determined in Beagle dog at a dose of 1 mg/kg by iv administration. The class given is ADME, organism-based, Canis lupus familiaris. On the set-up: dose 1 mg/kg, route intravenous. Conditions: in vivo.
The nature of data set [10]: Half life period was determined in rhesus monkey at a dose of 1 mg/kg by iv administration. The class given is ADME, organism-based. Details: dose 1 mg/kg, route intravenous. The following applies: cercopithecidae, in vivo.
Data set [11] can be described thus: Half life period was determined in Beagle dog at a dose of 1 mg/kg by iv administration. The class given is ADME, organism-based, Canis lupus familiaris. Details: dose 1 mg/kg, route intravenous. The following applies: in vivo.
Data set [12] can be described thus: Plasma clearance was determined in Sprague-Dawley rats at a dose of 1 mg/kg by iv administration. The following applies: rat, read-out: Clp. Details: dose 1 mg/kg, route intravenous. The class given is ADME, organism-based.
The subject of another data set is Rattus norvegicus. Nature of the data set: Unbound plasma was determined in Sprague-Dawley rats at a dose of 1 mg/kg by iv administration. The class given is ADME, organism-based. On the set-up: dose 1 mg/kg, route intravenous. The following applies: in vivo.
Data set [13] can be described thus: Half life period was determined in Sprague-Dawley rats at a dose of 1 mg/kg by iv administration. The class given is ADME, organism-based. The following applies: rat, in vivo. Details: dose 1 mg/kg, route intravenous.
A short description of data set [14]: Oral bioavailability in rhesus monkey at a dose of 2 mg/kg by po administration. The class given is ADME, organism-based, Macaca mulatta. Conditions: in vivo.

The source of these data is ChEMBL document CHEMBL1145733, “N-isonicotinoyl-(L)-4-aminophenylalanine derivatives as tight binding VLA-4 antagonists” (Bioorg Med Chem Lett, 2003).

T1 sequence (P05556 whole entry): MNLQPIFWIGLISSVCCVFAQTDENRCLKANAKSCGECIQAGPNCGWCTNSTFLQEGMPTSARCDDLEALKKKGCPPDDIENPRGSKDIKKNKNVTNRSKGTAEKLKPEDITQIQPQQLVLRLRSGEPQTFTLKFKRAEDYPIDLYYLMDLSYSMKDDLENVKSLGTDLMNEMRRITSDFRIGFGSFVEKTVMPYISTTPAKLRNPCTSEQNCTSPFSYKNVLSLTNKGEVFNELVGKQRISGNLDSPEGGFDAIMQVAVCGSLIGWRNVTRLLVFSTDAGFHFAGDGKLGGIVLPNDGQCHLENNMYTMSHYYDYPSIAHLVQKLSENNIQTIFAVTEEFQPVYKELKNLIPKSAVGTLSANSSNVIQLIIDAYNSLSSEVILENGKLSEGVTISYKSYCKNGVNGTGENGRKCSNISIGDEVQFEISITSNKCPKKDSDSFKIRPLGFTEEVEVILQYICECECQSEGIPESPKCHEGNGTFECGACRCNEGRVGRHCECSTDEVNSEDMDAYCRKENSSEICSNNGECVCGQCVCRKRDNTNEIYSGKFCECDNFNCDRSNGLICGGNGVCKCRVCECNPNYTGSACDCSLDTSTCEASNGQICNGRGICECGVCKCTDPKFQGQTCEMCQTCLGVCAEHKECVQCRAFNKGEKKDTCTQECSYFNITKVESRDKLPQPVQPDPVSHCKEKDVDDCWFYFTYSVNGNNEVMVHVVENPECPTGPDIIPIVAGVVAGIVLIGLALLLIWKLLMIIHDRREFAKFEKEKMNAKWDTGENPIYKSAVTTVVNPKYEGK
T1 sequence (P13612 whole entry): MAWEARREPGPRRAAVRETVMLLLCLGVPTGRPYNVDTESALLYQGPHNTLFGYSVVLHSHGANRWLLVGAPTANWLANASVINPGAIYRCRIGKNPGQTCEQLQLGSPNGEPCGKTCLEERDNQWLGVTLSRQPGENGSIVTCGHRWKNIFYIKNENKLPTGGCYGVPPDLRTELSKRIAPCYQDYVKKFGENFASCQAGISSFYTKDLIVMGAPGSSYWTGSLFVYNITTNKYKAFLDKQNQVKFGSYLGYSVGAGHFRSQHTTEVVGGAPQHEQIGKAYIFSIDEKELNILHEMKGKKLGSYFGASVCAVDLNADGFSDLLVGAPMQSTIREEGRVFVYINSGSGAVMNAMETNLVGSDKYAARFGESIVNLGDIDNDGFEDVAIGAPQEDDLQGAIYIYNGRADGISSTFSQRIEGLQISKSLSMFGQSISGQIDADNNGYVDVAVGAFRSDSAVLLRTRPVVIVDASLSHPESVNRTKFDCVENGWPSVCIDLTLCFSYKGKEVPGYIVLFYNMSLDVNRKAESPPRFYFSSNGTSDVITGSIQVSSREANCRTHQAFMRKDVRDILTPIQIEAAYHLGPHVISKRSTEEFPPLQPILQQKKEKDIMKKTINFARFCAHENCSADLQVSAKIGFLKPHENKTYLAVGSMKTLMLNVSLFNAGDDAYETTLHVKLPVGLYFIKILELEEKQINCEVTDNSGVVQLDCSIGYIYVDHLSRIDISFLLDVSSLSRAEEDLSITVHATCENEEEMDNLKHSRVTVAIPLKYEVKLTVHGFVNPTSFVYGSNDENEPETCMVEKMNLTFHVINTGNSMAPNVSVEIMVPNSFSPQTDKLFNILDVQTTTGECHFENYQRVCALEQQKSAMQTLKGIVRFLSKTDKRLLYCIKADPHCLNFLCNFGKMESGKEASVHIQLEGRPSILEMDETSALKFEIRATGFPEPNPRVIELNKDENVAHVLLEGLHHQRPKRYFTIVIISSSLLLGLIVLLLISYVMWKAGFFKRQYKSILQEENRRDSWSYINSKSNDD

Broadly, the IC50 is the concentration that gives 50% inhibition. As for `CSc1cnccc1C(=O)Nc1ccc(C[C@H](NC(=O)[C@]2(C)CCCN2S(=O)(=O)c2cc(Cl)cc(Cl)c2)C(=O)O)cc1`, the IC50 at Integrin alpha-4/beta-1 [1] was 1.56 nM; on Integrin alpha-4/beta-1 [2] it was 1.56 nM; at Integrin alpha-4/beta-1 [4] it was 0.36 nM. At Integrin alpha-4/beta-1 [3], this molecule came in with a Bound of 0%.

For the molecule `C[C@@]1(C(=O)N[C@@H](Cc2ccc(NC(=O)c3cnccc3Cl)cc2)C(=O)O)CCCN1S(=O)(=O)c1cc(Cl)cc(Cl)c1`, the IC50 at Integrin alpha-4/beta-1 [1] was found to be 0.21 nM; on Integrin alpha-4/beta-1 [2] it was 0.21 nM; at Integrin alpha-4/beta-1 [4] it was 0.14 nM. Moreover, at Integrin alpha-4/beta-1 [3], the Bound is 26%.

Consider `O=C(Nc1ccc(C[C@H](NC(=O)[C@@H]2CCCN2S(=O)(=O)c2ccccc2)C(=O)O)cc1)c1c(Cl)cncc1Cl`, for which the half-maximal inhibitory concentration (IC50) amounted to 0.13 nM on Integrin alpha-4/beta-1 [1], 0.13 nM on Integrin alpha-4/beta-1 [2] and 0.15 nM on Integrin alpha-4/beta-1 [4]. The same molecule came in with a Bound on Integrin alpha-4/beta-1 [3] of 19%.

As for `COc1ccnc(Cl)c1C(=O)Nc1ccc(C[C@H](NC(=O)[C@]2(C)CCCN2S(=O)(=O)c2cc(Cl)cc(Cl)c2)C(=O)O)cc1`, the IC50 is 0.08 nM on Integrin alpha-4/beta-1 [1], 0.08 nM at Integrin alpha-4/beta-1 [2] and 0.13 nM on Integrin alpha-4/beta-1 [4]. Also, on Integrin alpha-4/beta-1 [3], the Bound came out at 40%.

As a reminder, the bioavailability is dose-corrected exposure relative to a reference, in per cent. What is called half-life is the time in which the quantity being followed falls by half. In the case of `C[C@@]1(C(=O)N[C@@H](Cc2ccc(NC(=O)c3c(Cl)ccnc3Cl)cc2)C(=O)O)CCCN1S(=O)(=O)c1cc(Cl)cc(Cl)c1`, the IC50 at Integrin alpha-4/beta-1 [1], at Integrin alpha-4/beta-1 [2] and on Integrin alpha-4/beta-1 [4] was 0.11 nM in each case. Further, the Unbound plasma is recorded as 0.15% in data set [5], 2.2% in the data set with Canis familiaris and 0.2% in the data set with Rattus norvegicus. In addition, the clearance in [6] was 32 mL/min/kg; in data set [7], 7.5 mL/min/kg; in data set [12], 1.9 mL/min/kg. Besides, the values for the bioavailability in data set [8], in [9] and in data set [14] were 1.6%, 0.4% and 4%, respectively. Further, the half-life in data set [10] was 2.3 h; in data set [11], 0.73 h; in data set [13], 1.7 h. The molecule further had a Bound on Integrin alpha-4/beta-1 [3] of 57%.

As for `COc1cc(CN2CCCC2)cc(OC)c1-c1ccc(C[C@H](NC(=O)[C@]2(C)CCCN2S(=O)(=O)c2cc(Cl)cc(Cl)c2)C(=O)O)cc1`, the IC50 on Integrin alpha-4/beta-1 [1] stood at 0.09 nM; at Integrin alpha-4/beta-1 [2], 0.09 nM; on Integrin alpha-4/beta-1 [4], 0.1 nM. At Integrin alpha-4/beta-1 [3], the Bound came out at 43%.

As for `C[C@@]1(C(=O)N[C@@H](Cc2ccc(NC(=O)c3c(Cl)cccc3Cl)cc2)C(=O)O)CCCN1S(=O)(=O)c1cc(Cl)cc(Cl)c1`, the IC50 was 0.15 nM on Integrin alpha-4/beta-1 [1], 0.15 nM at Integrin alpha-4/beta-1 [2] and 0.21 nM at Integrin alpha-4/beta-1 [4]. The same molecule showed a Bound at Integrin alpha-4/beta-1 [3] of 15%.

Take `O=C(Nc1ccc(C[C@H](NC(=O)[C@@H]2CCCN2S(=O)(=O)c2cccc(Cl)c2)C(=O)O)cc1)c1c(Cl)cncc1Cl`: the figures for the IC50 on Integrin alpha-4/beta-1 [1], at Integrin alpha-4/beta-1 [2] and at Integrin alpha-4/beta-1 [4] were 0.1 nM, 0.1 nM and 0.09 nM, respectively. On Integrin alpha-4/beta-1 [3], this molecule had a Bound of 37%.

For `COc1cccc(OC)c1-c1ccc(C[C@H](NC(=O)[C@]2(C)CCCN2S(=O)(=O)c2cc(Cl)cc(Cl)c2)C(=O)O)cc1`, the IC50 at Integrin alpha-4/beta-1 [1] and on Integrin alpha-4/beta-1 [2] was 0.09 nM throughout. In addition, at Integrin alpha-4/beta-1 [3], the Bound was 1%.

In the case of `C[n+]1cc(Cl)c(C(=O)Nc2ccc(C[C@H](NC(=O)[C@]3(C)CCCN3S(=O)(=O)c3cc(Cl)cc(Cl)c3)C(=O)O)cc2)c(Cl)c1`, the figures for the IC50 at Integrin alpha-4/beta-1 [1], on Integrin alpha-4/beta-1 [2] and at Integrin alpha-4/beta-1 [4] were 0.1 nM, 0.1 nM and 0.19 nM, respectively. The molecule further registered a Bound on Integrin alpha-4/beta-1 [3] of 61%.

For the molecule `O=C(Nc1ccc(C[C@H](NC(=O)[C@@H]2CCCN2S(=O)(=O)c2cc(Cl)cc(Cl)c2)C(=O)O)cc1)c1c(Cl)cncc1Cl`, the results for the IC50 at Integrin alpha-4/beta-1 [1], at Integrin alpha-4/beta-1 [2] and on Integrin alpha-4/beta-1 [4] were 0.07 nM, 0.07 nM and 0.1 nM, respectively. The same molecule had a Bound at Integrin alpha-4/beta-1 [3] of 62%.

As to `C[C@@]1(C(=O)N[C@@H](Cc2ccc(NC(=O)c3cccnc3)cc2)C(=O)O)CCCN1S(=O)(=O)c1cc(Cl)cc(Cl)c1`, the figures for the IC50 on Integrin alpha-4/beta-1 [1], on Integrin alpha-4/beta-1 [2] and at Integrin alpha-4/beta-1 [4] were 0.25 nM, 0.25 nM and 0.27 nM, respectively. Further, the Bound at Integrin alpha-4/beta-1 [3] turned out to be 12%.

In the case of `C[n+]1ccc(C(=O)Nc2ccc(C[C@H](NC(=O)[C@]3(C)CCCN3S(=O)(=O)c3cc(Cl)cc(Cl)c3)C(=O)O)cc2)c(Cl)c1`, the values for the IC50 at Integrin alpha-4/beta-1 [1], on Integrin alpha-4/beta-1 [2] and at Integrin alpha-4/beta-1 [4] were 0.31 nM, 0.31 nM and 0.16 nM, respectively. The same molecule returned a Bound at Integrin alpha-4/beta-1 [3] of 0%.

Take `C[C@@]1(C(=O)N[C@@H](Cc2ccc(NC(=O)C3=C(Cl)CC(=O)N=C3Cl)cc2)C(=O)O)CCCN1S(=O)(=O)c1cc(Cl)cc(Cl)c1`: the IC50 on Integrin alpha-4/beta-1 [1] stood at 0.08 nM; on Integrin alpha-4/beta-1 [2], 0.08 nM; at Integrin alpha-4/beta-1 [4], 0.1 nM. The Bound on Integrin alpha-4/beta-1 [3] amounted to 61%.
